Reference: US12692261B2, “Substituted heterocyclic compounds and therapeutic uses thereof” (Bayer Aktiengesellschaft, priority 2020, dated 2026)
Read-outs that look alike come from different tables or passages of the source.

What was measured:
[1] = target: T1, wild-type Epidermal Growth Factor Receptor (EGFR) (Homo sapiens, UniProt P00533); experiment: WT-EGFR Kinase Assay (TR-FRET, 2 mM ATP); type: biochemical
T1 construct: a fragment of human EGFR (amino acids R669 to A1210); made in house; host or cells: Sf9 insect cells
Summary of the method: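 GST-fused human EGFR fragment (R669-A1210) from Sf9 cells, typically 7.6 pg/μL, pre-incubated with compound 15 min at 22° C in Hepes pH 7.0 buffer with MgCl2, DTT and vanadate; biotinylated peptide substrate. After EDTA stop, phosphopeptide detected by TR-FRET (anti-phosphotyrosine Tb-cryptate/streptavidin-XL665), 665/620 nm emission ratio.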

full-length human CSNK1D = target: T2, full-length human CSNK1D (Homo sapiens, UniProt P48730); experiment: CSNK1D Assay (ADP-Glo, 1 μM ATP); type: biochemical; conditions: Table 3, read-out: CSNK1D IC50 [mol/l] (median)
T2 construct: N-terminal Glutathion-S-Transferase (GST) and full-length human CSNK1D; purchased Life Technologies PV3665; host or cells: baculovirus infected insect cells
Summary of the method: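 Enzyme is N-terminal GST-tagged full-length human CSNK1D from baculovirus-infected insect cells (typically about 0.5 ng/μL), with a biotinylated peptide substrate and 1 μM ATP. Compound pre-incubated 15 min at 22° C in HEPES pH 7.5 buffer; ADP formed is read by ADP-Glo luminescence.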

[2] = EGFR Wildtyp 2 mM ATP IC50 [mol/l] (median), Table 4
[3] = read-out: EGFR Wildtyp 2 mM ATP IC50 [mol/l] (median), Table 4

T2 sequence (P48730 whole entry): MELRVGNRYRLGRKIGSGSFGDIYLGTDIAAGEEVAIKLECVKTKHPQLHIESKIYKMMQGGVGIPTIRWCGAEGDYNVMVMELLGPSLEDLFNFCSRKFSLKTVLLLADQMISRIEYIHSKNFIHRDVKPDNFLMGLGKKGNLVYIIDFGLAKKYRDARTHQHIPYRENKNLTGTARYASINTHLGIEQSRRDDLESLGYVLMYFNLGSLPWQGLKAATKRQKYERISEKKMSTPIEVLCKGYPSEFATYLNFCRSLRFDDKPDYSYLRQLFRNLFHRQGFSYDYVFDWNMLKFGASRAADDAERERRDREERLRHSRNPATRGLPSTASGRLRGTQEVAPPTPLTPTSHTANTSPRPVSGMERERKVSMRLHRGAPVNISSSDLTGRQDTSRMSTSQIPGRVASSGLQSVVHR
T1 sequence (P00533 669-1210): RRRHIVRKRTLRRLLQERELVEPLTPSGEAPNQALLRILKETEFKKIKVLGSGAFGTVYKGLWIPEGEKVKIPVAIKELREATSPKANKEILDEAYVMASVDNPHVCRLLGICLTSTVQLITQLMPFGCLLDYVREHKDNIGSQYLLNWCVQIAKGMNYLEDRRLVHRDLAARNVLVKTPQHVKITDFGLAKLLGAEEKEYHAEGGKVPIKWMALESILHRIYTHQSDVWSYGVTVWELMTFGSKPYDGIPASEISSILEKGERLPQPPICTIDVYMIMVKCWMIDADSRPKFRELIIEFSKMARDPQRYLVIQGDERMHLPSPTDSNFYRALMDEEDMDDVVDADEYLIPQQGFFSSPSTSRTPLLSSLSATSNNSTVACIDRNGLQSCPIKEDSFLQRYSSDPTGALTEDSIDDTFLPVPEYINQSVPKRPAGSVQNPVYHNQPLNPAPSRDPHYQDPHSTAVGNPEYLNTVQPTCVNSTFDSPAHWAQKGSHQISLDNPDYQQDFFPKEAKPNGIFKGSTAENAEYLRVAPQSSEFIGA

Compound | IC50 [1, 2] [nM] | IC50 (full-length human CSNK1D) [nM] | IC50 [1, 3] [nM]
COc1cnc2c(-c3ccccn3)c(-c3ccnc(NC(=O)C(CC(F)F)c4ccc(F)cc4)c3)[nH]c2n1 (centres unmarked) [Example 101, 4,4-difluoro-2-(4-fluorophenyl)-N-{4-[3-methoxy-7-(pyridin-2-yl)-5H-pyrrolo[2,3-b]pyrazin-6-yl]pyridin-2-yl}butanamide] | > 20000 | 9.17 | 
CC(C)(O)c1cc(F)nc2c(-c3ccccn3)c(-c3ccnc(NC(=O)C(CC(F)F)c4ccc(F)cc4)c3)[nH]c12 (single isomer, unassigned) [Example 100, (2R or S)-4,4-difluoro-N-{4-[5-fluoro-7-(2-hydroxypropan-2-yl)-3-(pyridin-2-yl)-1H-pyrrolo[3,2-b]pyridin-2-yl]pyridin-2-yl}-2-(4-fluorophenyl)butanamide] |  | 46.3 | > 20000
O=C(Nc1cc(-c2[nH]c3c(CC4CC4)cc(F)nc3c2-c2ccccn2)ccn1)C(CC(F)F)c1ccc(F)cc1 (single isomer, unassigned) [Example 47, (2R or S)—N-{4-[7-(cyclopropylmethyl)-5-fluoro-3-(pyridin-2-yl)-1H-pyrrolo[3,2-b]pyridin-2-yl]pyridin-2-yl}-4,4-difluoro-2-(4-fluorophenyl)butanamide] | > 20000 | 59 | 
COc1cnc2c(-c3ccccn3)c(-c3ccnc(NC(=O)C(CC(F)F)c4ccc(F)cc4)c3)[nH]c2n1 (single isomer, unassigned) [Example 103, 4,4-difluoro-2-(4-fluorophenyl)-N-{4-[3-methoxy-7-(pyridin-2-yl)-5H-pyrrolo[2,3-b]pyrazin-6-yl]pyridin-2-yl}butanamide] |  | 4.3 | > 20000
O=C(Nc1cc(-c2[nH]c3c(OC4CC4)cc(F)nc3c2-c2ccccn2)ccn1)C(CC(F)F)c1ccc(F)cc1 (centres unmarked) [Example 45] | > 20000 | 40.4 | 
O=C(Nc1cc(-c2[nH]c3c(Cl)ccnc3c2-c2ccccn2)ccn1)C(CC(F)F)c1ccc(F)cc1 (racemic) [Example 49, (2RS)—N-{4-[7-chloro-3-(pyridin-2-yl)-1H-pyrrolo[3,2-b]pyridin-2-yl]pyridin-2-yl}-4,4-difluoro-2-(4-fluorophenyl)butanamide] | > 20000 | 7.69 | 
O=C(Nc1cc(-c2[nH]c3ccc(F)nc3c2-c2cc(F)ccn2)ccn1)C(CC(F)F)c1ccc(F)cc1 (single isomer, unassigned) [Example 97, (2R or S)-4,4-difluoro-N-{4-[5-fluoro-3-(4-fluoropyridin-2-yl)-1H-pyrrolo[3,2-b]pyridin-2-yl]pyridin-2-yl}-2-(4-fluorophenyl)butanamide] |  | 67 | > 20000
Cc1cnc2c(-c3ccccn3)c(-c3ccnc(NC(=O)C(CC(F)F)c4ccc(F)cc4)c3)[nH]c2c1 (single isomer, unassigned) [Example 9, 4,4-difluoro-2-(4-fluorophenyl)-N-{4-[6-methyl-3-(pyridin-2-yl)-1H-pyrrolo[3,2-b]pyridin-2-yl]pyridin-2-yl}butanamide] |  | 32.8 | > 20000
COc1ncnc2c(-c3ccccn3)c(-c3ccnc(NC(=O)C(CC(F)F)c4ccc(F)cc4)c3)[nH]c12 (centres unmarked) [Example 113, 4,4-difluoro-2-(4-fluorophenyl)-N-{4-[4-methoxy-7-(pyridin-2-yl)-5H-pyrrolo[3,2-d]pyrimidin-6-yl]pyridin-2-yl}butanamide] | > 20000 | 9.2 | 
COc1cc(F)nc2c(-c3ccccn3)c(-c3ccnc(NC(=O)C(CC(F)F)c4ccc(F)cc4)c3)[nH]c12 (racemic) [Example 39, (rac)-4,4-difluoro-N-{4-[5-fluoro-7-methoxy-3-(pyridin-2-yl)-1H-pyrrolo[3,2-b]pyridin-2-yl]pyridin-2-yl}-2-(4-fluorophenyl)butanamide] | > 20000 | 40.2 | 
COc1cc(F)nc2c(-c3ccccn3)c(-c3ccnc(NC(=O)C(CC(F)F)c4ccc(F)cc4)c3)[nH]c12 (single isomer, unassigned; (+)) [Example 40, (+)-4,4-difluoro-N-{4-[5-fluoro-7-methoxy-3-(pyridin-2-yl)-1H-pyrrolo[3,2-b]pyridin-2-yl]pyridin-2-yl}-2-(4-fluorophenyl)butanamide] | > 20000 | 5.57 | 
O=C(Nc1cc(-c2[nH]c3cccnc3c2-c2ccccc2)ccn1)C(CC(F)F)c1ccc(F)cc1 (single isomer, unassigned; (-)) [Example 23, (−)-4,4-difluoro-2-(4-fluorophenyl)-N-[4-(3-phenyl-1H-pyrrolo[3,2-b]pyridin-2-yl)pyridin-2-yl]butanamide] | > 20000 | 12.5 | 
O=C(Nc1cc(-c2[nH]c3cccnc3c2-c2ccccn2)ccn1)C(CC(F)F)c1ccc(F)cc1 (racemic) [Example 10, 4,4-difluoro-2-(4-fluorophenyl)-N-{4-[3-(pyridin-2-yl)-1H-pyrrolo[3,2-b]pyridin-2-yl]pyridin-2-yl}butanamide] | > 20000 | 4.99 | 
O=C(Nc1cc(-c2[nH]c3nccnc3c2-c2ccccn2)ccn1)C(CC(F)F)c1ccc(F)cc1 (racemic) [Example 31, (2RS)-4,4-difluoro-2-(4-fluorophenyl)-N-{4-[7-(pyridin-2-yl)-5H-pyrrolo[2,3-b]pyrazin-6-yl]pyridin-2-yl}butanamide] | > 20000 | 7.81 | 
O=C(Nc1cc(-c2[nH]c3cncnc3c2-c2ccccn2)ccn1)C(CC(F)F)c1ccc(F)cc1 (single isomer, unassigned; (+)) [Example 15, (+)-4,4-difluoro-2-(4-fluorophenyl)-N-{4-[7-(pyridin-2-yl)-5H-pyrrolo[3,2-d]pyrimidin-6-yl]pyridin-2-yl}butanamide] |  | 3.06 | > 20000
O=C(Nc1cc(-c2[nH]c3nccnc3c2-c2ccccn2)ccn1)[C@@H](CC(F)F)c1ccc(F)cc1 (single isomer, unassigned) [Example 32] | > 20000 | 4.55 | 
O=C(Nc1cc(-c2[nH]c3c(C4CCCO4)cc(F)nc3c2-c2ccccn2)ccn1)C(CC(F)F)c1ccc(F)cc1 (single isomer, unassigned) [Example 115, (2R or S)-4,4-difluoro-N-(4-{5-fluoro-7-[(2R or S)-oxolan-2-yl]-3-(pyridin-2-yl)-1H-pyrrolo[3,2-b]pyridin-2-yl}pyridin-2-yl)-2-(4-fluorophenyl)butanamide] | 19600 | 7.02 | 
O=C(Nc1cc(-c2[nH]c3c(CC4CC4)cc(F)nc3c2-c2ccccn2)ccn1)C(CC(F)F)c1ccc(F)cc1 (single isomer, unassigned) [Example 48, (2R or S)—N-{4-[7-(cyclopropylmethyl)-5-fluoro-3-(pyridin-2-yl)-1H-pyrrolo[3,2-b]pyridin-2-yl]pyridin-2-yl}-4,4-difluoro-2-(4-fluorophenyl)butanamide] |  | 6.99 | > 20000
Cc1cc2[nH]c(-c3ccnc(NC(=O)C(CC(F)F)c4ccc(F)cc4)c3)c(-c3ccccn3)c2nc1F (single isomer, unassigned) [Example 34, 4,4-difluoro-N-{4-[5-fluoro-6-methyl-3-(pyridin-2-yl)-1H-pyrrolo[3,2-b]pyridin-2-yl]pyridin-2-yl}-2-(4-fluorophenyl)butanamide] | > 20000 | 6.86 | 
